Data: patent US20240269139A1, “COMPOUNDS FOR TARGETED PROTEIN DEGRADATION OF KINASES” (DANA-FARBER CANCER INSTITUTE, INC., priority 2020, published 2024)
Read-outs that look alike come from different tables or passages of the source.

Assays:
Assay type in all cases: cell-based
[1] = molecular target: T1, protein kinases (human kinome) (Homo sapiens, UniProt O75385); details: ULK1 O75385
T1 sequence (O75385 1-1050): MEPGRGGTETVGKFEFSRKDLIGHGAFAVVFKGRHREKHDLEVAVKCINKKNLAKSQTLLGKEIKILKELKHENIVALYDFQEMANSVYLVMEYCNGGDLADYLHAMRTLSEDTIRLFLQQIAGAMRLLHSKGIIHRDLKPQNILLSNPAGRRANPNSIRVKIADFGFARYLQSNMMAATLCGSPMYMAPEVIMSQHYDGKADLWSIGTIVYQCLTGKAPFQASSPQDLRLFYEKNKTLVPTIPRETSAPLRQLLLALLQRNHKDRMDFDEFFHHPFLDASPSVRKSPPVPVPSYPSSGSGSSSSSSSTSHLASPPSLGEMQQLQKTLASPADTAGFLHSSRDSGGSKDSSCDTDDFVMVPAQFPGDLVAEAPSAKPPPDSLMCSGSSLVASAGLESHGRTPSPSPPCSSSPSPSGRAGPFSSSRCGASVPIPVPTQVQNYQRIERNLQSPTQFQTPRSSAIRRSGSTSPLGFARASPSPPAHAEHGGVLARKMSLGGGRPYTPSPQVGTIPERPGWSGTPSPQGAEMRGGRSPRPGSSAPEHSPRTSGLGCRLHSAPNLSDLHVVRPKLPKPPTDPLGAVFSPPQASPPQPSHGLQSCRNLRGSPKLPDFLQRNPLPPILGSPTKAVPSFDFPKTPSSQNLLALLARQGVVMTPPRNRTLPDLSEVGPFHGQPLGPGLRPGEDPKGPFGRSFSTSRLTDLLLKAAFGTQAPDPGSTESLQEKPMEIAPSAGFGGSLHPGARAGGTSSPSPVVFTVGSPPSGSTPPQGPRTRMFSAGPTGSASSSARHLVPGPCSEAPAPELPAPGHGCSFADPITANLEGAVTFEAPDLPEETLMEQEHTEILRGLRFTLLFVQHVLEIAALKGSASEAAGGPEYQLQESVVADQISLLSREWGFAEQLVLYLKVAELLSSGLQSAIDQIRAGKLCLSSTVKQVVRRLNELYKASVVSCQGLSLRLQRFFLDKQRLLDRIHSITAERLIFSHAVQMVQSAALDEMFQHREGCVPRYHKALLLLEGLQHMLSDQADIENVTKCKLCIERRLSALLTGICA

[2] = molecular target: protein kinases (human kinome) (Homo sapiens, UniProt P30291)
protein kinases (human kinome) (Homo sapiens, UniProt P30291), sequence (P30291 whole entry): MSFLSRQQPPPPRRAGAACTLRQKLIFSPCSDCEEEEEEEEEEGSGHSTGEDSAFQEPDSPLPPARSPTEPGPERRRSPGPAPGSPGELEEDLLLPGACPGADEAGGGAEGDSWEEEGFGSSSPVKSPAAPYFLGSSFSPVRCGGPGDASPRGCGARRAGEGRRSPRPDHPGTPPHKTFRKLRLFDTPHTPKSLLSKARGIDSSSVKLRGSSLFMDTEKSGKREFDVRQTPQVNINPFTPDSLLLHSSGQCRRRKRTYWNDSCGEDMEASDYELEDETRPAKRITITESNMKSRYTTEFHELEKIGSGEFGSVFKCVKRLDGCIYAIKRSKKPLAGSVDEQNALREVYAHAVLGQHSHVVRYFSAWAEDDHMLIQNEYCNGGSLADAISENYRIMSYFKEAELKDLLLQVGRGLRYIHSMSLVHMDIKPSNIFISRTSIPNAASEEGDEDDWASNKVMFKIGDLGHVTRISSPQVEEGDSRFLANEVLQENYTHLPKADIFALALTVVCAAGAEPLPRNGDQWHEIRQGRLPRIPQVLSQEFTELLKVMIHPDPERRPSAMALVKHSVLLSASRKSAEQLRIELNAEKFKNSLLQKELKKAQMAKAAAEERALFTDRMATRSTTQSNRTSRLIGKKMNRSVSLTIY

[3] = molecular target: protein kinases (human kinome) (Homo sapiens, UniProt Q9H0K1); details: experiment wp131
protein kinases (human kinome) (Homo sapiens, UniProt Q9H0K1), sequence (Q9H0K1 whole entry): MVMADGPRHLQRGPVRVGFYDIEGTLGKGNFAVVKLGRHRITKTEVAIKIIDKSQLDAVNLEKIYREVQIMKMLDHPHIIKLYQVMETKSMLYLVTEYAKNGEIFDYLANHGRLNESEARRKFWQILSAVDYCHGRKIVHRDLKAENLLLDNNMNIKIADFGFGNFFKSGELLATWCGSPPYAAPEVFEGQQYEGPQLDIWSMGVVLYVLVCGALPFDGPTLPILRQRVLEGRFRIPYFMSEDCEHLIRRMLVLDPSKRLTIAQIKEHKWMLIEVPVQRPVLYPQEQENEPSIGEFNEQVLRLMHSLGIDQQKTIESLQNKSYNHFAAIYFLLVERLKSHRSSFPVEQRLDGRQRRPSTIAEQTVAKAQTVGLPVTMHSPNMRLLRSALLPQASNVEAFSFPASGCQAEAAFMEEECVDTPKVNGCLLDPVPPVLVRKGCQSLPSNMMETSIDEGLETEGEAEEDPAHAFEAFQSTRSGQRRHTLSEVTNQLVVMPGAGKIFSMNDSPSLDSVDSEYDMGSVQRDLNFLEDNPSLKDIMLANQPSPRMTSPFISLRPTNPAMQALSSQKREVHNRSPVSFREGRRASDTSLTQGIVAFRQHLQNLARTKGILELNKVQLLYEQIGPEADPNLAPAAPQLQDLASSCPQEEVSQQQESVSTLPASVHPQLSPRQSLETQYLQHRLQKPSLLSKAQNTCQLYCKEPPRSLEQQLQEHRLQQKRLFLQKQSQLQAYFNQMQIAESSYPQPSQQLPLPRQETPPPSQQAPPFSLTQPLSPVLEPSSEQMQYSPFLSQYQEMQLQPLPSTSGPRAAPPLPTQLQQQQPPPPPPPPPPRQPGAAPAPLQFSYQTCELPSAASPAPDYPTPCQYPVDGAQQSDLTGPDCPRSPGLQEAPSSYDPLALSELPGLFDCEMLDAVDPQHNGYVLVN

[4] = test system: protein kinases (human kinome); details: for logFC of SRC: Accession P12931-2; for logFC LCK: accession P06239-3; for logFC LCK / logFC LCK (P06239-3): direction of change down
[5] = AURKB Q96GD4-5, experiment wp131
[6] = AURKB Q96GD4-5, experiment wp137

## CC(C)S(=O)(=O)c1ccccc1Nc1nc(Nc2ccc(N3CCN(CCOCCOCCNC(=O)CNc4cccc5c4C(=O)N(C4CCC(=O)NC4=O)C5=O)CC3)cc2)ncc1Cl (stereo not shown) [TL12.186]
[1]; experiment wp131
  logFC ULK1: −3.01
[1]; experiment wp137
  logFC ULK1: −2.237
[2]; WEE1 P30291-1, experiment wp137
  logFC of WEE1: −2.511
[2]; experiment wp016
  logFC WEE1 (P30291-1): −1.514
[2]; experiment wp131
  logFC WEE1 (P30291-1): −2.574
[2]; experiment wp137
  logFC WEE1 (P30291-1): −2.511
[3]; Accession Q9H0K1
  logFC of SIK2: −1.317
[3]; direction of change down
  logFC SIK2 (Q9H0K1): −1.317
[4]; [5]
  logFC: −0.9938
  logFC AURKB: −0.9938
[4]; [6]
  logFC: −0.9711
  logFC AURKB: −0.9711
[4]; Accession O60566-3, experiment wp131, direction down
  logFC BUB1B: −0.541
[4]; Accession O60566-3, experiment wp137, direction down
  logFC BUB1B: −0.5516
[4]; experiment wp016
  logFC of SRC: −0.3573
  logFC LCK: −0.7129
  logFC CDK9 (P50750-2): −0.6414
  logFC PRKAA1 (Q13131-2): −0.434
  logFC LCK (P06239-3): −0.7129
[4]; experiment wp131
  logFC of SRC: −0.7777
  logFC LCK: −1.455
  logFC ABL2 (P42684-5): −0.8023
  logFC CDK9 (P50750-2): −1.451
  logFC PRKAA1 (Q13131-2): −0.5988
  logFC of ABL2 (P42684-5): −0.8023
  logFC of MARK2 (Q7KZI7-14): −0.4868
  logFC LCK (P06239-3): −1.455
[4]; experiment wp137
  logFC of SRC: −0.5738
  logFC LCK: −1.373
  logFC CDK9 (P50750-2): −1.511
  logFC PRKAA1 (Q13131-2): −0.641
  logFC RPS6KA1 (Q15418-2): −0.4514
  logFC of CDK17 (Q00537-2): −0.7026
  logFC LCK (P06239-3): −1.373
[4]; Accession P48730-2, experiment wp137, direction down
  logFC CSNK1D: −0.4721
[4]; Accession Q00537-2, experiment wp137
  logFC of CDK17: −0.7026
[4]; BUB1B (O60566-3), experiment wp131
  logFC BUB1B: −0.541
[4]; BUB1B (O60566-3), experiment wp137
  logFC BUB1B: −0.5516
[4]; CSNK1D P48730-2, experiment wp137
  logFC CSNK1D: −0.4721
[4]; Experiment wp016, direction down
  logFC PRKAA1 (Q13131-2): −0.434
[4]; Experiment wp131, direction down
  logFC PRKAA1 (Q13131-2): −0.5988
[4]; Experiment wp137, direction down
  logFC PRKAA1 (Q13131-2): −0.641
[4]; MARK2 Q7KZI7-14, experiment wp131
  logFC: −0.4868
[4]; PIP5K1A (Q99755-3), experiment wp131
  logFC: −0.3436
[4]; PIP5K1A (Q99755-3), experiment wp137
  logFC: −0.4526
[4]; RPS6KA1 (Q15418-2), experiment wp137
  logFC RPS6KA1: −0.4514
